In paper PMC5622430, “A Drosophila female pheromone elicits species-specific long-range attraction via an olfactory channel with dual specificity for sex and food” (BMC Biology, 2017):

The compounds below were run against T1, Or69aB (Drosophila melanogaster, UniProt P82985) (assay: single sensillum recording, empty ab3A neuron). Conditions: 10 ug on filter paper, 0.5 s puff; activation (agonist).
T1 construct: gene Or69a; full ORF cloned from antennal cDNA into pUAS.g-HA.attB; expressed in Dhalo ab3A empty neurons (Or22a-Gal4), endogenous Orco; with Odorant receptor coreceptor
T1 sequence (P82985 1-393): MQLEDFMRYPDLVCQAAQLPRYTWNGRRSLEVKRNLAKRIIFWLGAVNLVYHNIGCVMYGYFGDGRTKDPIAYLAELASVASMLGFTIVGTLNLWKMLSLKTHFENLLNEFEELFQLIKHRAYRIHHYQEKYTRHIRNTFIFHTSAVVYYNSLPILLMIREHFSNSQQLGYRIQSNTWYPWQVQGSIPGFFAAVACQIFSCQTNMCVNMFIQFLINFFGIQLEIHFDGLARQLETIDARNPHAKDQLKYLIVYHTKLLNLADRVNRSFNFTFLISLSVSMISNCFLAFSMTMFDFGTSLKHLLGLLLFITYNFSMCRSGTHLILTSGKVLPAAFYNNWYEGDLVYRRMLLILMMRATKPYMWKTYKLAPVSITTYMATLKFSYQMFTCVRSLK
T1 sequence (Q9VNB5 1-486 partner): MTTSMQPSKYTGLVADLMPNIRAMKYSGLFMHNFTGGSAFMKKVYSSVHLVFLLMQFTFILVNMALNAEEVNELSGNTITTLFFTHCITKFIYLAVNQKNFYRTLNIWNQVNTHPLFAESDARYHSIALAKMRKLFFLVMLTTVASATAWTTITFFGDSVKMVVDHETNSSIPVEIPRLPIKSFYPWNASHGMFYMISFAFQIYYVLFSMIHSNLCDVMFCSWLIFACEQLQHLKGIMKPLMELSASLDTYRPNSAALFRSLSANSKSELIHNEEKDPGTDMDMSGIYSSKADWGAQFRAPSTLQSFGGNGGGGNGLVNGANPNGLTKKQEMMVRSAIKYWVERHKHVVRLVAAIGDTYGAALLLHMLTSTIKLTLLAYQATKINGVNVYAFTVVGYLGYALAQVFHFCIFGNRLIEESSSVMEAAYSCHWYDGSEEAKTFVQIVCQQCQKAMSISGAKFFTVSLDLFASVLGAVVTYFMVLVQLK
Type: cell-based
With C=C(C)[C@H]1CC=C(C)C(=O)C1 [(S)-carvone] the “SSR response (spikes/s)” value was “Or69aB responds best to both isomers of carvone”. C=C(C)[C@@H]1CC=C(C)C(=O)C1 [compound 8, (R)-carvone] was tested, and the “SSR response (spikes/s)” value was “(R)-carvone, which elicited the strongest Or69aB response”. In the case of CCCCCC/C=C\CCC=O [compound 10, (Z)-4-undecenal], the “SSR response (spikes/s)” value is reported as “Or69aB responds best to both isomers of carvone, followed by Z4-11Al”.

What follows are compounds tested against T2, Or69aA (Drosophila melanogaster, UniProt Q9VU27) (assay: single sensillum recording, empty ab3A neuron). Conditions: 10 ug on filter paper, 0.5 s puff; activation (agonist).
T2 construct: gene Or69a; full ORF cloned from antennal cDNA into pUAS.g-HA.attB; expressed in Dhalo ab3A empty neurons (Or22a-Gal4), endogenous Orco; with Odorant receptor coreceptor
T2 sequence (Q9VU27 1-393): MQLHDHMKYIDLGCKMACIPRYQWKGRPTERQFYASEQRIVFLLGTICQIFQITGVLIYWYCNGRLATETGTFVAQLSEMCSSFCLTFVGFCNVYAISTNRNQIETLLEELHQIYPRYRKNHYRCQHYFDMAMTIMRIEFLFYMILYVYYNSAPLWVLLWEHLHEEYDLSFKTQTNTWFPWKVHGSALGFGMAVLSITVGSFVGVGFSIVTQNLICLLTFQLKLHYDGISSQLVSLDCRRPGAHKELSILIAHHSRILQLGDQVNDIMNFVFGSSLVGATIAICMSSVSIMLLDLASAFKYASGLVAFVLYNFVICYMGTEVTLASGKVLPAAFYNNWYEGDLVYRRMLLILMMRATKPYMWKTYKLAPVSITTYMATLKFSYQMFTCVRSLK
T2 sequence (Q9VNB5 1-486 partner): T1 sequence (Q9VNB5 1-486 partner)
Type: cell-based
With C=C[C@@](C)(O)CCC=C(C)C [(S)-linalool] the “SSR response (spikes/s)” value was “The most active ligands (S)-α-terpineol and (S)- and (R)-linalool”. With CC1=CC[C@@H](C(C)(C)O)CC1 [compound 1, (S)-α-terpineol] the “SSR response (spikes/s)” value was “The most active ligands (S)-α-terpineol and (S)- and (R)-linalool”. With C=C[C@](C)(O)CCC=C(C)C [compound 4, (R)-linalool] the “SSR response (spikes/s)” value was “The most active ligands (S)-α-terpineol and (S)- and (R)-linalool”.
